system: Jurkat; test: CellTiter-Glo Luminescent Cell Viability Assay, half inhibitory concentration (IC50) on tumor cell proliferation; format: cell-based; conditions: Homo sapiens, Jurkat cells, 72 h treatment
Description: The tumor cells used herein were cultured in a cell culture medium at 37° C. in an incubator with 5% CO2, where the cell culture medium was supplemented with 10% FBS, as well as penicillin at a final concentration of 100 U/mL and streptomycin at a final concentration of 100 μg/mL. Prior to experimentation, all cells used were identified as correct cells by STR cells, and were negative for mycoplasma through routine testing.
IC50 values of the compounds of the present disclosure (including the compounds in Table 1 and compounds of examples) were measured using the CellTiter-Glo® Luminescent Cell Viability Assay kit from Promega Corporation. Assay details are as follows: Cells were seeded in 100 μL RPMI1640 medium containing serum at a density of 20,000 cells/well. After 24 h, the inoculated cells were treated with the compounds of the present disclosure which were serially diluted. After the cells were treated with the compounds of the present disclosure for 72 h, the CellTiter-Glo® reagent was added to the culture medium for cell viability assessment according to the instructions provided with the kit. DMSO served as the negative control, and FK866 inhibitor was used as the positive control, both treated with the same protocol as the compounds of the present disclosure. The growth inhibition of the compounds of the present disclosure on cells was plotted by Prism Graphpad software, and the IC50 values of the compounds of the present disclosure were calculated therefrom.

Row | IC50 [nM] | Structure (SMILES)
1 | 62.9 | O=C(/C=C/c1cccnc1)NCCCCC1CCN(C(=O)c2ccc(N3CCN(CCCCSc4cccc5c4C(=O)N(C4CCC(=O)NC4=O)C5=O)CC3)cc2)CC1 (stereo not shown) [SIAIS631070, (E)-N-(4-(1-(4-(4-(4-((2-(2,6-dioxopiperidin-3-yl)-1,3-dioxoisoindolin-4-yl)thio)butyl)piperazin-1-yl)benzoyl)piperidin-4-yl)butyl)-3-(pyridin-3-yl)acrylamide]
2 | 635 | O=C(/C=C/c1cccnc1)NCCCCC1CCN(C(=O)c2ccc(N3CCN(CCCCCSc4cccc5c4C(=O)N(C4CCC(=O)NC4=O)C5=O)CC3)cc2)CC1 (stereo not shown) [SIAIS631071, (E)-N-(4-(1-(4-(4-(5-((2-(2,6-dioxopiperidin-3-yl)-1,3-dioxoisoindolin-4-yl)thio)pentyl)piperazin-1-yl)benzoyl)piperidin-4-yl)butyl)-3-(pyridin-3-yl)acrylamide]
3 | 63 | O=C(/C=C/c1cccnc1)NCCCCC1CCN(C(=O)c2ccc(N3CCN(CCCCCCSc4cccc5c4C(=O)N(C4CCC(=O)NC4=O)C5=O)CC3)cc2)CC1 (stereo not shown) [SIAIS631072, (E)-N-(4-(1-(4-(4-(6-((2-(2,6-dioxopiperidin-3-yl)-1,3-dioxoisoindolin-4-yl)thio)hexyl)piperazin-1-yl)benzoyl)piperidin-4-yl)butyl)-3-(pyridin-3-yl)acrylamide]
4 | 62.5 | O=C(/C=C/c1cccnc1)NCCCCC1CCN(C(=O)c2ccc(N3CCN(CCCCCCCCSc4cccc5c4C(=O)N(C4CCC(=O)NC4=O)C5=O)CC3)cc2)CC1 (stereo not shown) [SIAIS631073, (E)-N-(4-(1-(4-(4-(8-((2-(2,6-dioxopiperidin-3-yl)-1,3-dioxoisoindolin-4-yl)thio)octyl)piperazin-1-yl)benzoyl)piperidin-4-yl)butyl)-3-(pyridin-3-yl)acrylamide]
5 | 62.2 | O=C(/C=C/c1cccnc1)NCCCCC1CCN(C(=O)c2ccc(N3CCN(CCCCCCCSc4cccc5c4C(=O)N(C4CCC(=O)NC4=O)C5=O)CC3)cc2)CC1 (stereo not shown) [SIAIS631078, (E)-N-(4-(1-(4-(4-(7-((2-(2,6-dioxopiperidin-3-yl)-1,3-dioxoisoindolin-4-yl)thio)heptyl)piperazin-1-yl)benzoyl)piperidin-4-yl)butyl)-3-(pyridin-3-yl)acrylamide]
6 | 7.32 | O=C(/C=C/c1cccnc1)NCCCCC1CCN(C(=O)c2ccc(N3CCN(C(=O)CCOCCNc4cccc5c4C(=O)N(C4CCC(=O)NC4=O)C5=O)CC3)cc2)CC1 (stereo not shown) [SIAIS631079, (E)-N-(4-(1-(4-(4-(3-(2-((2-(2,6-dioxopiperidin-3-yl)-1,3-dioxoisoindolin-4-yl)amino)ethoxy)propanoyl)piperazin-1-yl)benzoyl)piperidin-4-yl)butyl)-3-(pyridin-3-yl)acrylamide]
7 | 79.7 | O=C(/C=C/c1cccnc1)NCCCCC1CCN(C(=O)c2ccc(N3CCN(CCCCCC#Cc4cccc5c4C(=O)N(C4CCC(=O)NC4=O)C5=O)CC3)cc2)CC1 (stereo not shown) [SIAIS631108, (E)-N-(4-(1-(4-(4-(7-(2-(2,6-dioxopiperidin-3-yl)-1,3-dioxoisoindolin-4-yl)hept-6-yn-1-yl)piperazin-1-yl)benzoyl)piperidin-4-yl)butyl)-3-(pyridin-3-yl)acrylamide]
8 | 71.2 | O=C(/C=C/c1cccnc1)NCCCCC1CCN(C(=O)c2ccc(N3CCN(C(=O)CCOCCOCCNc4cccc5c4C(=O)N(C4CCC(=O)NC4=O)C5=O)CC3)cc2)CC1 (stereo not shown) [SIAIS631109, (E)-N-(4-(1-(4-(4-(3-(2-(2-((2-(2,6-dioxopiperidin-3-yl)-1,3-dioxoisoindolin-4-yl)amino)ethoxy)ethoxy)propanoyl)piperazin-1-yl)benzoyl)piperidin-4-yl)butyl)-3-(pyridin-3-yl)acrylamide]
9 | 64.3 | O=C(/C=C/c1cccnc1)NCCCCC1CCN(C(=O)c2ccc(N3CCN(C(=O)COCCSc4cccc5c4C(=O)N(C4CCC(=O)NC4=O)C5=O)CC3)cc2)CC1 (stereo not shown) [SIAIS631111, (E)-N-(4-(1-(4-(4-(2-(2-((2-(2,6-dioxopiperidin-3-yl)-1,3-dioxoisoindolin-4-yl)thio)ethoxy)acetyl)piperazin-1-yl)benzoyl)piperidin-4-yl)butyl)-3-(pyridin-3-yl)acrylamide]

Second part, the compound before the results:

Row | Structure (SMILES) | IC50 [nM]
10 | O=C(/C=C/c1cccnc1)NCCCCC1CCN(C(=O)c2ccc(N3CCN(CCCCCCCSc4cccc5c4CN(C4CCC(=O)NC4=O)C5=O)CC3)cc2)CC1 (stereo not shown) [SIAIS630134, (E)-N-(4-(1-(4-(4-(7-((2-(2,6-dioxopiperidin-3-yl)-1-oxoisoindolin-4-yl)thio)heptyl)piperazin-1-yl)benzoyl)piperidin-4-yl)butyl)-3-(pyridin-3-yl)acrylamide] | 7.28
11 | O=C(/C=C/c1cccnc1)NCCCCC1CCN(C(=O)c2ccc(N3CCN(CCCCCCCCSc4cccc5c4CN(C4CCC(=O)NC4=O)C5=O)CC3)cc2)CC1 (stereo not shown) [SIAIS630135, (E)-N-(4-(1-(4-(4-(8-((2-(2,6-dioxopiperidin-3-yl)-1-oxoisoindolin-4-yl)thio)octyl)piperazin-1-yl)benzoyl)piperidin-4-yl)butyl)-3-(pyridin-3-yl)acrylamide] | 4.02
12 | O=C(/C=C/c1cccnc1)NCCCCC1CCN(C(=O)c2ccc(N3CCN(CCCCCCCCCCCSc4cccc5c4CN(C4CCC(=O)NC4=O)C5=O)CC3)cc2)CC1 (stereo not shown) [SIAIS630136, (E)-N-(4-(1-(4-(4-(11-((2-(2,6-dioxopiperidin-3-yl)-1-oxoisoindolin-4-yl)thio)undecyl)piperazin-1-yl)benzoyl)piperidin-4-yl)butyl)-3-(pyridin-3-yl)acrylamide] | 64.5
13 | Cc1ncsc1-c1ccc(CNC(=O)[C@@H]2C[C@@H](O)CN2C(=O)[C@@H](NC(=O)CCOCCOCCC(=O)N2CCN(c3ccc(C(=O)N4CCC(CCCCNC(=O)/C=C/c5cccnc5)CC4)cc3)CC2)C(C)(C)C)cc1 [SIAIS631011, (2S,4R)-1-((S)-3,3-dimethyl-2-(3-(2-(3-oxo-3-(4-(4-(4-(4-((E)-3-(pyridin-3-yl)acrylamido)butyl)piperidine-1-carbonyl)phenyl)piperazin-1-yl)propoxy)ethoxy)propanamido)butanoyl)-4-hydroxy-N-(4-(4-methylthiazol-5-yl)benzyl)pyrrolidine-2-carboxamide] | 140
14 | O=C(/C=C/c1cccnc1)NCCCCN1CCN(C(=O)c2ccc(N3CCN(CCCCCC#Cc4cccc5c4CN(C4CCC(=O)NC4=O)C5=O)CC3)cc2)CC1 (stereo not shown) [SIAIS631045, (E)-N-(4-(4-(4-(4-(7-(2-(2,6-dioxopiperidin-3-yl)-1-oxoisoindolin-4-yl)hept-6-yn-1-yl)piperazin-1-yl)benzoyl)piperazin-1-yl)butyl)-3-(pyridin-3-yl)acrylamide] | 80
15 | O=C(/C=C/c1cccnc1)NCCCCC1CCN(C(=O)c2ccc(N3CCN(CCSc4cccc5c4C(=O)N(C4CCC(=O)NC4=O)C5=O)CC3)cc2)CC1 (stereo not shown) [SIAIS631068, (E)-N-(4-(1-(4-(4-(2-((2-(2,6-dioxopiperidin-3-yl)-1,3-dioxoisoindolin-4-yl)thio)ethyl)piperazin-1-yl)benzoyl)piperidin-4-yl)butyl)-3-(pyridin-3-yl)acrylamide] | 74.4
16 | O=C(/C=C/c1cccnc1)NCCCCC1CCN(C(=O)c2ccc(N3CCN(CCCSc4cccc5c4C(=O)N(C4CCC(=O)NC4=O)C5=O)CC3)cc2)CC1 (stereo not shown) [SIAIS631069, (E)-N-(4-(1-(4-(4-(3-((2-(2,6-dioxopiperidin-3-yl)-1,3-dioxoisoindolin-4-yl)thio)propyl)piperazin-1-yl)benzoyl)piperidin-4-yl)butyl)-3-(pyridin-3-yl)acrylamide] | 71.2
